Patent publication US7538193B2, “NO-modified hemoglobins and uses therefor” (Duke University, priority 1995, dated 2009)

What was measured:
[1] = test system: rabbit thoracic aorta rings; experiment: Rabbit aortic ring bioassay: vessel tone and ACh (EDRF)-mediated relaxation; type: cell-based; details: 1 μM addition; ACh-mediated relaxation of rabbit aortic ring
Description: The effects of native Hb on EDRF responses were compared with Hb preparations in which the thiol or heme centers had been blocked by alkylation or cyanmet derivitization, respectively. All preparations of Hb elicited contractions; however, those of native Hb (in which both SH and metal centers are free for interaction) were most pronounced. […] Relaxations were inhibited to lesser degrees by cyanmet Hb (CN-Hb) (in which hemes were blocked from reaction) and NEM-Hb (in which thiol groups were alkylated by N-ethylmaleimide). […] Direct measurement of SNO-Hb, formed from EDRF under similar conditions, is described in Example 8.
Descending rabbit thoracic aorta were cut into 3 mm rings and mounted on stirrups attached to force transducers (model FT03, Grass Instruments, Quincy, Mass.) for measurement of isometric tone. The details of this bioassay system have been previously described (Stamler, J. S., et al., Proc. Natl. Acad. Sci. USA, 89:444-448 (1992)). Cyanmet Hb was prepared from human HbA according to published protocols (Kilbourn, R. G. et al. Biochem. Biophys. Res. Comm., 199:155-162, (1994)). Alkylation of HbA with N-ethylmaleimide was followed by desalting across G-25 Sephadex to remove excess NEM. Removal of unmodified Hbcysβ93 was achieved by passage through Hg-containing affinity columns. The alkylation of free SH groups was verified using 5,5′-dithio-bis[2-nitrobenzoic acid].

[2] = test system: rabbit thoracic aortic rings, endothelium removed; experiment: Oxygen-dependent vessel ring bioassay (Examples 22, 23); type: cell-based
[3] = test system: rat brain (caudatoputamen nucleus); experiment: Brain blood flow in rats by H2 clearance (Example 12); type: in vivo; details: rats breathing 21% O2; 100 or 1000 nmol/kg
Protocol: SNO-Hb(FeII)O2, having a SNO/Hb ratio of 2, was prepared (from HbA0) by reaction with S-nitrosothiol. Rats breathing 21% O2 were injected (time 0) with Hbs prepared from HbA0 as indicated in FIG. 10 (open circles, SNO-Hb (100 nmol/kg); filled circles, SNO-Hb (1000 nmol/kg); filled squares, unmodified Hb (1000 nmol/kg)). Three rats were used per experiment. Blood flow was measured in brain using the H2 clearance method; microelectrodes were placed in the brain stereotactically. […] NO group release is promoted by local tissue hypoxia.

[4] = test system: substantia nigra, caudate putamen nucleus and parietal cortex of Sprague-Dawley rats; experiment: O2-dependent local cerebral blood flow in rats (Example 25); type: in vivo, rat; details: 1 μmol/kg infused over 3 minutes
Protocol: Adult male Sprague-Dawley rats (290-350 g) were anesthetized with sodium pentobarbital (50 mg/kg IP), intubated and ventilated with a small animal respirator (Edco Scientific Inc., Chapel Hill, N.C.) at a rate and tidal volume to maintain normal values of PaCO2 (35-45 mm Hg; PaCO2=systemic arterial blood carbon dioxide tension). The femoral vein and artery were cannulated for infusion of drugs and for continuous monitoring of systemic blood pressure, respectively. Aliquots of arterial blood (200 μl) were drawn periodically to measure blood gas tensions and pH (Instrumentation Laboratory Co., model 1304 blood gas/pH analyzer). The blood was replaced intravenously with three volumes of normal saline. The inspired O2 concentration was varied using premixed gases balanced with nitrogen. The tissue PO2 was measured continuously with polarographic platinum microelectrodes (50 μm O.D. coated with hydrophobic gas permeable Nafion) implanted stereotaxically in both the right and left hippocampus (AP-3.4 mm, ML+2.2 mm), caudate putamen nucleus and substantia nigra (see coordinates below) (Young, W., Stroke, 11:552-564 (1980); Heiss, W. D. and Traupett, H., Stroke, 12:161-167 (1981); Dewhirst, M. W. et al., Cancer Res., 54:3333-3336 (1994); Kerger, H. et al., Am. J. Physiol., 268:H802-H810 (1995)). The PO2 electrodes were polarized to −0.65V against a distant Ag/AgCl reference located on the tail and the current flow was measured using a low-impedance nA-meter. Regional arterial PO2 was adjusted by changing the inspired O2 concentration and atmospheric pressure.
Polarographic hydrogen (H2)-sensitive microelectrodes were implanted stereotaxically in the substantia nigra (AP −5.3 mm, ML −2.4 mm to the bregma, depth 3.2 mm), caudate putamen nucleus (CPN) (AP +0.8 mm, ML −2.5 mm, depth 5.2 mm) and parietal cortex, for measurement of regional blood flow (Young, W., Stroke, 11:552-564 (1980); Heiss, W. D. and Traupett, H., Stroke, 12:161-167 (1981)). The microelectrodes were made from platinum wire and insulated with epoxy, with the exception of the tip (1 mm) which was coated with Nafion. For placement, the electrodes were mounted on a micromanipulator and the rat's head was immobilized in a Kopf stereotaxic frame. H2-sensitive electrodes were polarized to +400 mV against a distant reference electrode on the tail, and the polarographic current was measured using a low-impedance nA meter during and after the inhalation of hydrogen gas (2.5%) for 1 min. Both the hydrogen clearance curves and voltage for oxygen measurements were made using PC WINDAQ (software, DI-200 AC, Dataq Instruments, Inc., Akron, Ohio). Cerebral blood flow was calculated using the initial slope method (Young, W., Stroke, 11:552-564 (1980); Heiss, W. D. and Traupett, H., Stroke, 12:161-167 (1981)). Regional blood flow responses were monitored for 30 min. prior to and 30 min. following drug administration; hemoglobins were given at time 0.
The cerebrovascular effects of SNO-Hb were measured in adult male Sprague-Dawley rats using O2 and H2 (blood flow)-sensitive microelectrodes that were placed stereotaxically in several regions of the brain as for Example 24.

Substance: Hb: native, underivatized human hemoglobin A purified from red cells
- % ACh RELAXATION [1]: 31.9 ± 6.9 (n = 7) %
- effect on vessel tone ([2]; 1 μM, rings contracted with phenylephrine under hypoxic conditions (6-7 torr)): progressive increases in vessel tone
- effect of 10 μM glutathione on the response ([2]; 10 μM glutathione in bioassay chambers): no effect
- effect on vessel tension ([2]; 95% O2 or 21% O2 (R-structure)): contract blood vessels
- effect on vessel tension ([2]; <1% O2 (~6 torr), T-structure): strongly contracts blood vessels
- blood flow to the brain [3]: decreases blood flow
- local cerebral blood flow ([4]; 21% O2): decreased local blood flow
- local cerebral blood flow ([4]; 100% O2 + 3 ATA): tended to decrease cerebral flow to similar extents
- local cerebral blood flow ([4]; 100% O2): preserved
